Where only a bound is given, the exact number is not on record here.

This assay deals with T1, human EP2 (PTGER2) (Homo sapiens, UniProt P43116).
T1 construct: Cayman Chemical (Human EP2 Reporter Assay Kit)
T1 sequence (P43116 whole entry): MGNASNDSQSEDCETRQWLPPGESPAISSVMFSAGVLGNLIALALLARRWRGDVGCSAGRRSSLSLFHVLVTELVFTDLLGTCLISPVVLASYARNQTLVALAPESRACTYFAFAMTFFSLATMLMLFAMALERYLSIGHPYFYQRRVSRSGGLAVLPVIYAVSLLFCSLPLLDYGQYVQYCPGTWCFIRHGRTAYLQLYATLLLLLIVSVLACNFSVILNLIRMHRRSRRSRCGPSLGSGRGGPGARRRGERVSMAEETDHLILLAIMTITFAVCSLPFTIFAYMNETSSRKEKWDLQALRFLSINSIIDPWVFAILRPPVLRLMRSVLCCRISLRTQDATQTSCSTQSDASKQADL
Description: EP2 antagonist assay (HEK-293 CNG membrane potential cAMP assay / 293T SEAP reporter assay, PGE2-stimulated). The assay is classed as cell-based. The following applies: EP2 antagonist activity; concentration for 50% inhibition of signal compared to DMSO. An outline of the steps: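 Two formats. In a CRE-SEAP reporter assay, reverse-transfected 293T cells received compound with PGE2 (13 nM final) for 6-8 h, then luminescence was read. In the ACTOne CNG format, HEK-293 cells were preincubated with compound for 15 min at RT, stimulated with 5 nM PGE2 for 30 min, and read by membrane-potential dye fluorescence. IC50 was taken versus DMSO.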
(Cyclic AMP is a second messenger, typically raised through Gs and lowered through Gi signalling.)
One may read the IC50 as the concentration needed to halve the response being measured. Low values mean inhibition by little substance, high ones a need for much substance. As to `C[C@H](NC(=O)c1cc(-c2cc(F)cc(F)c2)cc2cnn(Cc3ccc(-c4ccccc4)cc3)c12)c1ccc(C(=O)O)cc1` [Example 200, (S)-4-(1-(1-([1,1′-biphenyl]-4-ylmethyl)-5-(3,5-difluorophenyl)-1H-indazole-7-carboxamido)ethyl)benzoic acid], the IC50 was below 100 nM. The value for `C[C@H](NC(=O)c1cc(-c2ccc(F)c(F)c2)cc2cnn(Cc3ccc(-c4ccccc4)cc3)c12)c1ccc(C(=O)O)cc1` [Example 201, (S)-4-(1-(1-([1,1′-biphenyl]-4-ylmethyl)-5-(3,4-difluorophenyl)-1H-indazole-7-carboxamido)ethyl)benzoic acid] was below 100 nM; that for `C[C@H](NC(=O)c1cc(-c2ccccc2)cc2cnn(Cc3ccc(-c4ccc(F)cc4)cc3)c12)c1ccc(C(=O)O)cc1` [Example 202, (S)-4-(1-(1-((4′-fluoro-[1,1′-biphenyl]-4-yl)methyl)-5-phenyl-1H-indazole-7-carboxamido)ethyl)benzoic acid] was below 100 nM. Consider `C[C@H](NC(=O)c1cc(-c2ccc(F)cc2)cc2cnn(Cc3ccc(-c4ccc(F)cc4)cc3)c12)c1ccc(C(=O)O)cc1` [Example 203, (S)-4-(1-(1-((4′-fluoro-[1,1′-biphenyl]-4-yl)methyl)-5-(4-fluorophenyl)-1H-indazole-7-carboxamido)ethyl)benzoic acid], for which the 50% inhibitory concentration (IC50) is below 100 nM. `C[C@H](NC(=O)c1cc(-c2cc(F)cc(F)c2)cc2cnn(Cc3ccc(-c4ccc(F)cc4)cc3)c12)c1ccc(C(=O)O)cc1` [Example 204, (S)-4-(1-(5-(3,5-difluorophenyl)-1-((4′-fluoro-[1,1′-biphenyl]-4-yl)methyl)-1H-indazole-7-carboxamido)ethyl)benzoic acid] returned an IC50 below 100 nM. The figure for `C[C@H](NC(=O)c1cc(-c2ccc(F)c(F)c2)cc2cnn(Cc3ccc(-c4ccc(F)cc4)cc3)c12)c1ccc(C(=O)O)cc1` [Example 205, (S)-4-(1-(5-(3,4-difluorophenyl)-1-((4′-fluoro-[1,1′-biphenyl]-4-yl)methyl)-1H-indazole-7-carboxamido)ethyl)benzoic acid] is below 100 nM; for `N#Cc1cccc(-c2cc(C(=O)NC3(c4ccc(C(=O)O)cc4)CC3)c3c(ccn3Cc3cccc(Cl)c3)c2)c1` [Example 206, 4-(1-(1-(3-chlorobenzyl)-5-(3-cyanophenyl)-1H-indole-7-carboxamido)cyclopropyl)benzoic acid] it is below 100 nM. The value for `C[C@H](NC(=O)c1cc(-c2ccc(F)c(F)c2)cc2ccn(Cc3ccc(-c4ccccc4)cc3)c12)c1ccc(C(=O)O)cc1` [Example 207, (S)-4-(1-(1-([1,1′-biphenyl]-4-ylmethyl)-5-(3,4-difluorophenyl)-1H-indole-7-carboxamido)ethyl)benzoic acid] was below 100 nM. The value for `O=C(O)c1ccc(CNC(=O)c2cc(-c3ccccc3)cc3ccn(Cc4ccc(-c5ccc(F)cc5)cc4)c23)cc1` [Example 208, 4-((1-((4′-fluoro-[1,1′-biphenyl]-4-yl)methyl)-5-phenyl-1H-indole-7-carboxamido)methyl)benzoic acid] was below 100 nM; that for `O=C(O)c1ccc(CNC(=O)c2cc(-c3ccc(F)cc3)cc3ccn(Cc4ccc(-c5ccc(F)cc5)cc4)c23)cc1` [Example 209, 4-((1-((4′-fluoro-[1,1′-biphenyl]-4-yl)methyl)-5-(4-fluorophenyl)-1H-indole-7-carboxamido)methyl)benzoic acid] was below 100 nM; that for `O=C(O)c1ccc(CNC(=O)c2cc(-c3cc(F)cc(F)c3)cc3ccn(Cc4ccc(-c5ccc(F)cc5)cc4)c23)cc1` [Example 210, 4-((5-(3,5-difluorophenyl)-1-((4′-fluoro-[1,1′-biphenyl]-4-yl)methyl)-1H-indole-7-carboxamido)methyl)benzoic acid] was below 100 nM. `O=C(O)c1ccc(CNC(=O)c2cc(-c3ccc(F)c(F)c3)cc3ccn(Cc4ccc(-c5ccc(F)cc5)cc4)c23)cc1` [Example 211, 4-((5-(3,4-difluorophenyl)-1-((4′-fluoro-[1,1′-biphenyl]-4-yl)methyl)-1H-indole-7-carboxamido)methyl)benzoic acid] returned a half-inhibitory concentration (IC50) below 100 nM. `C[C@H](NC(=O)c1cc(-c2ccccc2)cc2ccn(Cc3ccc(-c4ccc(F)cc4)cc3)c12)c1ccc(C(=O)O)cc1` [Example 212, (S)-4-(1-(1-((4′-fluoro-[1,1′-biphenyl]-4-yl)methyl)-5-phenyl-1H-indole-7-carboxamido)ethyl)benzoic acid]: the IC50 was below 100 nM. Turning to `C[C@H](NC(=O)c1cc(-c2ccc(F)cc2)cc2ccn(Cc3ccc(-c4ccc(F)cc4)cc3)c12)c1ccc(C(=O)O)cc1` [Example 213, (S)-4-(1-(1-((4′-fluoro-[1,1′-biphenyl]-4-yl)methyl)-5-(4-fluorophenyl)-1H-indole-7-carboxamido)ethyl)benzoic acid], the IC50 was below 100 nM. The figure for `C[C@H](NC(=O)c1cc(-c2cc(F)cc(F)c2)cc2ccn(Cc3ccc(-c4ccc(F)cc4)cc3)c12)c1ccc(C(=O)O)cc1` [Example 214, (S)-4-(1-(5-(3,5-difluorophenyl)-1-((4′-fluoro-[1,1′-biphenyl]-4-yl)methyl)-1H-indole-7-carboxamido)ethyl)benzoic acid] is below 100 nM; for `C[C@H](NC(=O)c1cc(-c2ccc(F)c(F)c2)cc2ccn(Cc3ccc(-c4ccc(F)cc4)cc3)c12)c1ccc(C(=O)O)cc1` [Example 215, (S)-4-(1-(5-(3,4-difluorophenyl)-1-((4′-fluoro-[1,1′-biphenyl]-4-yl)methyl)-1H-indole-7-carboxamido)ethyl)benzoic acid] it is below 100 nM; for `O=C(O)c1ccc(CNC(=O)c2cc(-c3ccc(F)c(F)c3)cc3ccn(Cc4ccc5ccccc5c4)c23)cc1` [Example 216, 4-((5-(3,4-difluorophenyl)-1-(naphthalen-2-ylmethyl)-1H-indole-7-carboxamido)methyl)benzoic acid] it is below 100 nM. As for `C[C@H](NC(=O)c1cc(-c2ccc(F)c(F)c2)cc2ccn(Cc3ccc4ccccc4c3)c12)c1ccc(C(=O)O)cc1` [Example 217, (S)-4-(1-(5-(3,4-difluorophenyl)-1-(naphthalen-2-ylmethyl)-1H-indole-7-carboxamido)ethyl)benzoic acid], the half-inhibitory concentration (IC50) was below 100 nM. The figure for `O=C(O)c1ccc(CNC(=O)c2cc(-c3ccc(F)c(F)c3)cc3cnn(Cc4ccc5ccccc5c4)c23)cc1` [Example 218, 4-((5-(3,4-difluorophenyl)-1-(naphthalen-2-ylmethyl)-1H-indazole-7-carboxamido)methyl)benzoic acid] is below 100 nM; for `C[C@H](NC(=O)c1cc(-c2ccc(F)c(F)c2)cc2cnn(Cc3ccc4ccccc4c3)c12)c1ccc(C(=O)O)cc1` [Example 219, (S)-4-(1-(5-(3,4-difluorophenyl)-1-(naphthalen-2-ylmethyl)-1H-indazole-7-carboxamido)ethyl)benzoic acid] it is below 100 nM.

Molecule `C[C@H](NC(=O)c1cc(-c2ccc(F)c(F)c2)cc2cnn(Cc3cccc(C(F)(F)F)c3)c12)c1ccc(C(=O)O)cc1` [Example 220, (S)-4-(1-(5-(3,4-difluorophenyl)-1-(3-(trifluoromethyl)benzyl)-1H-indazole-7-carboxamido)ethyl)benzoic acid] displayed a half-maximal inhibitory concentration (IC50) below 100 nM.

In turn, “((5-(3-cyano-5-fluorophenyl)-1-(4-(trifluoromethyl)benzyl)-1H-indole-7-carboxamido)methyl)benzoic acid [Example 77]” had an IC50 below 100 nM.

(Values after US20250179017A1 (GUANGDONG NEWOPP BIOPHARMACEUTICALS CO., LTD., priority 2022, published 2025).)
